In patent US11098032B2, “Pyran dervatives as CYP11A1 (cytochrome P450 monooxygenase 11A1) inhibitors” (ORION CORPORATION, priority 2016, dated 2021):
Counter-ions that a name gives are not always drawn.

Biological target: T1, CYP11A1 (Homo sapiens, UniProt P05108)
T1 construct: human H295R adrenocortical carcinoma cell line was used as source of enzyme; endogenous in cells; host or cells: H295R human adrenocortical carcinoma cells
T1 sequence (P05108 40-521): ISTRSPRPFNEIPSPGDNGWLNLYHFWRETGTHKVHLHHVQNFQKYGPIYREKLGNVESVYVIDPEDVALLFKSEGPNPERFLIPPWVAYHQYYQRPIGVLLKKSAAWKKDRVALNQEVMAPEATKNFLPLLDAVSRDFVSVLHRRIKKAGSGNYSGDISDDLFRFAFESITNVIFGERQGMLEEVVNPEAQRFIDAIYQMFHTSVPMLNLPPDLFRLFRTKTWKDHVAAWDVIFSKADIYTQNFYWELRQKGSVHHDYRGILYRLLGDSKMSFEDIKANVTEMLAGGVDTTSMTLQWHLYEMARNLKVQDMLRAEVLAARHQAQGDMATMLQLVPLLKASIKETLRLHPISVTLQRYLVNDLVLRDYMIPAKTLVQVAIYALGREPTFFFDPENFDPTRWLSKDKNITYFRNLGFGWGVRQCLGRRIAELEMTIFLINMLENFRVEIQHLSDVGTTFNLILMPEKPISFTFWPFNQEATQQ
Assay: CYP11A1 inhibition: modified isocaproic acid release assay (IARA) in H295R cells
Assay type: cell-based
Details: human H295R adrenocortical carcinoma cells treated three days, 3 nM [24,25-3H]-labelled cholesterol, 1% DMSO, 10 concentrations in duplicates; read-out: IC50 of the test compounds on CYP11A1 inhibition
In short: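 Cholesterol side-chain cleavage followed as tritiated isocaproic acid in charcoal-extracted medium, counted by scintillation. Substrate was 3 nM [24,25-3H]-cholesterol on human H295R cells exposed for three days to ten compound concentrations (duplicates, 1% DMSO); IC50 derived.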

SMILES	IC50
CS(=O)(=O)c1ccc(COc2coc(CN3Cc4cccc(Cl)c4C3)cc2=O)cc1 [Compound 281, 2-((4-Chloroisoindolin-2-yl)methyl)-5-((4-(methylsulfonyl)benzyl)oxy)-4H-pyran-4-one]	301 to 2000 nM
O=C(NCCCO)c1ccc(COc2coc(CN3Cc4ccccc4C3)cc2=O)cc1 [Compound 282, N-(3-Hydroxypropyl)-4-(((6-(isoindolin-2-ylmethyl)-4-oxo-4H-pyran-3-yl)oxy)methyl)benzamide]	301 to 2000 nM
CC(C)(CO)NC(=O)c1ccc(COc2coc(CN3Cc4ccccc4C3)cc2=O)cc1 [Compound 283, N-(1-hydroxy-2-methylpropan-2-yl)-4-(((6-(isoindolin-2-ylmethyl)-4-oxo-4H-pyran-3-yl)oxy)methyl)benzamide]	150 to 300 nM
O=CN1CCC(COc2coc(CN3Cc4ccccc4C3)cc2=O)CC1 [Compound 284, 4-(((6-(Isoindolin-2-ylmethyl)-4-oxo-4H-pyran-3-yl)oxy)methyl)piperidine-1-carbaldehyde, HCl]	150 to 300 nM

The next lines start with the values.

IC50	SMILES
< 150 nM	C[S@@](=N)(=O)c1ccc(COc2coc(CN3Cc4ccc(C(F)(F)F)cc4C3)cc2=O)cc1 [Compound 286, 5-((4-(R-Methylsulfonimidoyl)-benzyl)oxy)-2-((5-(trifluoromethyl)isoindolin-2-yl)methyl)-4H-pyran-4-one]
301 to 2000 nM	CS(=O)(=O)N1CCC(COc2coc(Cn3cc4ccc(C(F)(F)F)cc4c3)cc2=O)CC1 [Compound 287, 5-((1-(Methylsulfonyl)piperidin-4-yl)methoxy)-2-((5-(trifluoromethyl)-2H-isoindol-2-yl)methyl)-4H-pyran-4-one]
301 to 2000 nM	CS(=O)(=O)N1CCC(COc2coc(C[N+]3([O-])Cc4ccccc4C3)cc2=O)CC1 [Compound 289, 2-((5-((1-(Methylsulfonyl)piperidin-4-yl)methoxy)-4-oxo-4H-pyran-2-yl)-methyl)isoindoline 2-oxide]
301 to 2000 nM	CS(=O)(=O)N1CCC(COc2coc(C[N+]3([O-])Cc4ccc(C(F)(F)F)cc4C3)cc2=O)CC1 (stereo not drawn) [Compound 290, 2-((5-((1-(Methylsulfonyl)piperidin-4-yl)methoxy)-4-oxo-4H-pyran-2-yl)methyl)-5-(trifluoromethyl)isoindoline 2-oxide]
150 to 300 nM	CS(=O)(=O)N1C=CC(COc2coc(CN3Cc4ccc(C(F)(F)F)cc4C3)cc2=O)CC1 (stereo not drawn) [Compound 291, 5-((1-(Methylsulfonyl)-1,2,3,4-tetrahydropyridin-4-yl)methoxy)-2-((5-(trifluoro-methyl)isoindolin-2-yl)methyl)-4H-pyran-4-one]
